Experimental data taken from patent publication US6559173B1, “3-(heteroarylamino)methylene-1,3-dihydro-2H-indol-2-ones as kinase inhibitors” (Allergan, Inc., priority 2001, dated 2003).

Tests used:
[1] = test system: VEGF induced increases in intracellular calcium levels in HUVEC (human umbilical vein endothelial cells); experiment: VEGF Stimulated Ca++ signal assay (FLIPR); format: cell-based; details: VEGF 5 ng/mL; for IC50: 0.01 to 10.0 μM
Description: VEGF Stimulated Ca^++ Signal in vitro
Automated FLIPR (Fluorometric Imaging Plate Reader) technology was used to screen for inhibitors of VEGF induced increases in intracellular calcium levels in fluorescent dye loaded endothelial cells. HUVEC (human umbilical vein endothelial cells) (Clonetics) were seeded in 96-well fibronectin coated black-walled plates overnight @ 37° C./5%CO2. Cells were loaded with calcium indicator Fluo-4 for 45 minutes at 37° C. Cells were washed 4 times (Original Cell Wash, Labsystems) to remove extracellular dye. Test compounds were reconstituted in 100% DMSO and added to the cells to give a final DMSO concentration of 0.1%. For screening, cells were pre-incubated with test agents for 30 minutes, at a single concentration (10 μM) or at concentrations ranging from 0.01 to 10.0 μM followed by VEGF stimulation (5 ng/mL). Changes in fluorescence at 516 nm were measured simultaneously in all 96 wells using a cooled CCD camera. Data were generated by determining max-min fluorescence levels for unstimulated, stimulated, and drug treated samples. IC50 values for test compounds were calculated from % inhibition of VEGF stimulated responses in the absence of inhibitor.

[2] = biological target: T1, cytoplasmic domain of the human VEGF receptor (VEGFR-2) (Homo sapiens, UniProt P35968); experiment: KDR Assay; format: biochemical; details: His-VEGFR-2, 3.6 μM ATP, poly-Glu-Tyr (4:1)
T1 construct: The cytoplasmic domain of the human VEGF receptor (VEGFR-2) was expressed as a Histidine-tagged fusion protein; His tag (Histidine-tagged fusion); made in house; host or cells: insect cells (engineered baculovirus)
T1 sequence (P35968 786-1356 limits assumed): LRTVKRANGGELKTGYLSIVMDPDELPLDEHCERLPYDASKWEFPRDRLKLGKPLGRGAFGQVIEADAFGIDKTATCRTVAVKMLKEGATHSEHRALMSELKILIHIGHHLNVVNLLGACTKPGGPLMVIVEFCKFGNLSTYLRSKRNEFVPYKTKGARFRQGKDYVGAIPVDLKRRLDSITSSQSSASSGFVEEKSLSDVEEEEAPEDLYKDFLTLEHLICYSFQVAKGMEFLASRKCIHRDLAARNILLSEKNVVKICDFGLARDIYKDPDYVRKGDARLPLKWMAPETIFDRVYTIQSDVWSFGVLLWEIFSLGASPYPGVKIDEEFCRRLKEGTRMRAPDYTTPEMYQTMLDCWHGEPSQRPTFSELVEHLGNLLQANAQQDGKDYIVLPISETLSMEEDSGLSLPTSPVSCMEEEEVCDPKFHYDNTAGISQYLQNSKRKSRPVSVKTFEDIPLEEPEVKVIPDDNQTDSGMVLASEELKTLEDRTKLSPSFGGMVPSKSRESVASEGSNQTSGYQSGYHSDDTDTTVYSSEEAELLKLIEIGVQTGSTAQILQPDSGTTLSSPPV
Description: The cytoplasmic domain of the human VEGF receptor (VEGFR-2) was expressed as a Histidine-tagged fusion protein following infection of insect cells using an engineered baculovirus. His-VEGFR-2 was purified to homogeneity, as determined by SDS-PAGE, using nickel resin chromatography. Kinase assays were performed in 96 well microtiter plates that were coated overnight with 30 μg of poly-Glu-Tyr (4:1) in 10 mM Phosphate Buffered Saline (PBS), pH 7.2-7.4. The plates were incubated with 1% BSA and then washed four times with PBS prior to starting the reaction. Reactions were carried out in 120 μL reaction volumes containing 3.6 μM ATP in kinase buffer (50 mM Hepes buffer pH 7.4, 20 mM MgCl2, 0.1 mM MnCl2 and 0.2 mM Na3VO4). Test compounds were reconstituted in 100% DMSO and added to the reaction to give a final DMSO concentration of 5%. Reactions were initiated by the addition 0.5 ng of purified protein. Following a ten minute incubation at 25° C., the reactions were washed four times with PBS containing 0.05% Tween-20. 100 μl of a monoclonal anti-phosphotyrosine antibody-peroxidase conjugate was diluted 1:10000 in PBS-Tween-20 and added to the wells for 30 minutes. Following four washes with PBS-Tween-20, 100 μl of 0-Phenylenediamine Dihydrochloride in Phosphate-citrate buffer, containing urea hydrogen peroxide, was added to the wells for 7 minutes as a colorimetric substrate for the peroxidase. The reaction was terminated by the addition of 100 μl of 2.5N H2SO4 to each well and read using a microplate ELISA reader set at 492 nm. IC50 values for compound inhibition were calculated directly from graphs of optical density (arbitrary units) versus compound concentration following subtraction of blank values.

[3] = Homo sapiens, 10 μM, 30 min pre-incubation

Row | IC50 [2] | Molecule | VEGF Stimulated Ca++ signal assay % inhibition @10 μM ([1]; 10 μM, 30 min pre-incubation) | IC50 [1] | inhibition at 10 µM [1, 3] | IC50 ([1]; Homo sapiens)
1 |  | 3-[(1-H-Pyrazol-3 ylamino)methylene]-1,3-dihydro-indol-2-one [Example 1] | 92.8% | 3000 nM |  | 
2 | 580 nM | O=C1Nc2ccccc2C1=CNc1cc(-c2ccccc2)[nH]n1 [Example 2, 3-[(5-Phenyl-H-pyrazol-3-ylamino)-methylene]-1,3-dihydro-indol-2-one] |  |  | 90.5% | 1330 nM
3 | 840 nM | Cc1ccc(-c2cc(NC=C3C(=O)Nc4ccccc43)n[nH]2)cc1 [Example 3, 3-[(5-P-Tolyl-1H-pyrazol-3-ylamino)-methylene]-1,3-dihydro-indol-2-one] |  |  | 74% | 2440 nM
4 | 850 nM | O=C1Nc2ccccc2C1=CNc1cc(-c2ccco2)[nH]n1 [Example 4, 3-[(5-Furan-2-yl-1H-pyrazol-3-ylamino)-methylene]-1,3-dihydro-indol-2-one] |  | 700 nM | 92.6% | ≤ 1000 nM
5 | 180 nM | COc1ccc(Cc2cc(NC=C3C(=O)Nc4ccccc43)n[nH]2)cc1 [Example 5, 3-{[5-(4-Methoxy-benzyl)-1H-pyrazol-3-ylamino]-methylene}-1,3-dihydro-indol-2-one] |  | 500 nM | 98% | ≤ 1000 nM
6 | 540 nM | Cc1cccc2c1C(=CNc1cc(-c3ccco3)[nH]n1)C(=O)N2 [Example 7, 3-[(5-Furan-2-yl-1H-pyrazol-3-ylamino)-methylene]-4-methyl-1,3-dihydro-indol-2-one] |  | 920 nM | 98.3% | ≤ 1000 nM
7 | 970 nM | Cc1cccc2c1C(=CNc1cc(-c3ccccc3)[nH]n1)C(=O)N2 [Example 8, 4-Methyl-3-[(5-phenyl-1H-pyrazol-3-ylamino)-methylene]-1,3-dihydro-indol-2-one] |  |  | 64.5% | 3170 nM
8 | 1130 nM | O=C1Nc2ccc(Cl)cc2C1=CNc1cc[nH]n1 [Example 9, 5-Chloro-3-[(1H-pyrazol-3-ylamino)-methylene]-1,3-dihydro-indol-2-one] |  |  | 90% | 6140 nM
9 | 1030 nM | O=C1Nc2ccc(Cl)cc2C1=CNc1cc(-c2ccco2)[nH]n1 [Example 10, 3-[(5-Furan-2-yl-1H-pyrazol-3-ylamino)-methylene]-5-chloro-1,3-dihydro-indol-2-one] |  |  | 76% | 3230 nM
10 |  | O=C1Nc2ccccc2C1=CNc1n[nH]c(-c2ccccc2)c1Br [Example 11, 3-[(4-Bromo-5-phenyl-1H-pyrazol-3-ylamino)-methylene]-1,3-dihydro-indol-2-one] |  |  | 23.4% | 
11 |  | Cc1cccc2c1C(=CNc1n[nH]c(-c3ccccc3)c1Br)C(=O)N2 [Example 12, 3-[(4-Bromo-5-phenyl-1H-pyrazol-3-ylamino)-methylene]-4-methyl-1,3-dihydro-indol-2-one] |  |  | -12.9% | 
12 |  | O=C1Nc2ccc(Cl)cc2C1=CNc1n[nH]c(-c2ccccc2)c1Br [Example 13, 3-[(4-Bromo-5-phenyl-1H-pyrazol-3-ylamino)-methylene]-5chloro-1,3-dihydro-indol-2-one] |  |  | -19.1% | 
13 |  | O=C1Nc2ccc(Cl)cc2C1=CNc1cc(-c2ccccc2)[nH]n1 [Example 14, 5-Chloro-3-[(5-phenyl-1H-pyrazol-3-ylamino)-methylene]-1,3-dihydro-indol-2-one] |  |  | 27.4% | 
14 |  | O=C1Nc2ccccc2C1=CNc1n[nH]c2cccc(F)c12 [Example 15, 3-[(4-Fluoro-1H-indazol-3-ylamino)-methylene]-1,3-dihydro-indol-2-one] |  |  | 6.16% | 
15 |  | COc1ccc(-c2c(C)n[nH]c2NC=C2C(=O)Nc3ccccc32)cc1OC [Example 16, 3-{[4-(3,4-Dimethoxy-phenyl)-5-methyl-2H-pyrazol-3-ylamino]-methylene}-1,3-dihydro-indol-2-one] |  |  | -1.47% | 
16 |  | CCOC(=O)c1c[nH]nc1NC=C1C(=O)Nc2ccccc21 [Example 17, 3-[(2-Oxo-1,2-dihydro-indol-3-ylidenemethyl)-amino]-1H-pyrazole-4-carboxylic acid ethyl ester] |  |  | 27.2% | 
17 |  | CSc1[nH]nc(NC=C2C(=O)Nc3ccccc32)c1C#N [Example 18, 5-Methylsulfanyl-3-[(2-oxo-1,2-dihydro-indol-3-ylidenemethyl)-amino]-1H-pyrazole-4-carbonitrile] |  |  | 14.1% | 
18 |  | O=C1Nc2ccccc2C1=CNc1n[nH]cc1C(=O)O [Example 19, 3-[(2-Oxo-1,2-dihydro-indol-3-ylidenemethyl)-amino]-1H-pyrazole-4-carboxylic acid] |  |  | -0.89% | 
19 |  | N#Cc1c[nH]nc1NC=C1C(=O)Nc2ccccc21 [Example 20, 3-[(2-Oxo-1,2-dihydro-indol-3-ylidenemethyl)-amino]-1H-pyrazole-4-carbonitrile] |  |  | 35.8% | 
20 |  | O=C1Nc2ccccc2C1=CNc1n[nH]cc1Br [Example 21, 3-[(4-Bromo-1H-pyrazol-3-ylamino)-methylene]-1,3-dihydro-indol-2-one] |  |  | 32.1% | 
21 | 5780 nM | CC(C)(C)c1cc(NC=C2C(=O)Nc3ccccc32)n[nH]1 [Example 22, 3-[(5-tert-Butyl-1H-pyrazol-3-ylamino)-methylene]-1,3-dihydro-indol-2-one] |  |  | 98.3% | 6090 nM
22 | 370 nM | Cc1cc(NC=C2C(=O)Nc3ccccc32)n[nH]1 [Example 23, 3-[(5-Methyl-1H-pyrazol-3-ylamino)-methylene]-1,3-dihydro-indol-2-one] |  | 900 nM | 94.7% | ≤ 1000 nM
23 |  | COC(=O)c1ccc(-c2cc(NC=C3C(=O)Nc4ccccc43)n[nH]2)cc1 [Example 24, 4-{5-[(2-Oxo-1,2-dihydro-indol-3-ylidenemethyl)-amino]-2H-pyrazol-3-}-benzoic acid methyl ester] |  |  | 56.9% | ≥ 10000 nM
24 |  | Cc1cc(C)c2c(NC=C3C(=O)Nc4ccccc43)n[nH]c2n1 [Example 25, 3-[(4,6-Dimethyl-1H-pyrazolo[3,4-b]pyridin-3-ylamino)-methylene]-1,3-dihydro-indol-2-one] |  |  | 15.1% | 
25 |  | COc1ccc(-c2cc(NC=C3C(=O)Nc4ccccc43)[nH]n2)cc1 [Example 30, 3-{[5-(4-Methoxy-phenyl)2H-pyrazol-3-ylamino]-methylene}-1,3-dihydro-indol-2-one] |  |  | 12.3% | 
26 |  | O=C1Nc2ccccc2C1=CNc1cc(-c2cc(OCc3ccccc3)cc(OCc3ccccc3)c2)n[nH]1 [Example 31, 3-{[5-(3,5-Bis-benzyloxy-phenyl)-2H-pyrazol-3-ylamino]-methylene}-1,3-dihydro-indol-2-one] |  |  | -12.9% | 
27 |  | Cc1ccc(-c2cc(NC=C3C(=O)Nc4ccccc43)[nH]n2)c(C)c1 [Example 34, 3-{[5-(2,4-Dimethyl-phenyl)2H-pyrazol-3-ylamino]-methylene}-1,3-dihydro-indol-2-one] |  |  | 58.8% | 7640 nM
28 |  | Cc1cccc(Cc2cc(NC=C3C(=O)Nc4ccccc43)[nH]n2)c1 [Example 39, 3-{[5-(3-Methyl-benzyl)-2H-pyrazol-3-ylamino]-methylene}-1,3-dihydro-indol-2-one] |  |  | -12.6% | 
29 |  | O=C1Nc2ccccc2C1=CNc1cc(Cc2ccccc2)n[nH]1 [Example 40, 3-[(5-Benzyl-2H-pyrazol-3-ylamino)-methylene]-1,3-dihydro-indol-2-one] |  |  | -0.03% | 
30 | 570 nM | Cc1cc(NC=C2C(=O)Nc3cc(F)ccc32)n[nH]1 [Example 49, 6-Fluoro-3-[(5-methyl-1H-pyrazol-3-ylamino)-methylene]-1,3-dihydro-indol-2-one] |  |  |  | 
